According to publication PMC5974041, “Functional Studies of Sex Pheromone Receptors in Asian Corn Borer Ostrinia furnacalis” (Frontiers in Physiology, 2018):

Assays:
Assay in all cases: two-electrode voltage clamp, Xenopus oocytes
Format in all cases: cell-based
Settings in all cases: pH 7.6 Ringer's buffer, -80 mV, co-expressed OfurOrco, agonist
[1] = target: T1, OfurOR4 (Ostrinia furnacalis, UniProt A0A0E3VLP9)
T1 construct: gene OR4; full-length ORF from male antennal cDNA, untagged, in PT7TS; cRNA co-injected 1:1 with OfurOrco in Xenopus oocytes; naming of Yang et al. 2015 (group OR4 = OnubOR3 of Wanner/Leary); with Odorant receptor co-receptor (Orco)
T1 sequence (A0A0E3VLP9 1-422): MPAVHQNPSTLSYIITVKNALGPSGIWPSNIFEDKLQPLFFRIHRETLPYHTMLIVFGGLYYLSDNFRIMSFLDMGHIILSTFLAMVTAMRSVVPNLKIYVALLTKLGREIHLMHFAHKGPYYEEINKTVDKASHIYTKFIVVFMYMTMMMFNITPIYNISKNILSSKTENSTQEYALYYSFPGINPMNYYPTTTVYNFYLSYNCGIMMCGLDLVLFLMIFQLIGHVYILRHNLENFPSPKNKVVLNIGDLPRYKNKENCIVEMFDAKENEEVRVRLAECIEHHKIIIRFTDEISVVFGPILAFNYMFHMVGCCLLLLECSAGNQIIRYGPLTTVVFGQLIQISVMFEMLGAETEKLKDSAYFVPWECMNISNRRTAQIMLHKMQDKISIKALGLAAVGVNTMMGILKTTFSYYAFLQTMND
T1 sequence (A0A0E4B591 1-474 partner): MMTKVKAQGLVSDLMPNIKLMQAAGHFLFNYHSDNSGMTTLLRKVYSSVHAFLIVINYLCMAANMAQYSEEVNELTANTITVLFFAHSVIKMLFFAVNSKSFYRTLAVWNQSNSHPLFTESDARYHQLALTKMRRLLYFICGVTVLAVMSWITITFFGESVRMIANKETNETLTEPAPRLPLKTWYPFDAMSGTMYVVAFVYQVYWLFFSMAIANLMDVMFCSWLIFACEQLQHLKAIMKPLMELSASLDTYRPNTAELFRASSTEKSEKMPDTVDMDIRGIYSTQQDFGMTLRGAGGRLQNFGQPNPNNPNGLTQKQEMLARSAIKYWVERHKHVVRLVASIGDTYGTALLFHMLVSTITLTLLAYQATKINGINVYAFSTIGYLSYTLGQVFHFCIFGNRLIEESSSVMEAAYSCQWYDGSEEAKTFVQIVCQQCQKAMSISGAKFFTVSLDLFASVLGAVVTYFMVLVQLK

[2] = target: T2, OfurOR8 (Ostrinia furnacalis, UniProt A0A0E4B5G7)
T2 construct: gene OR8; full-length ORF from male antennal cDNA, untagged, in PT7TS; cRNA co-injected 1:1 with OfurOrco in Xenopus oocytes; naming of Yang et al. 2015; with Odorant receptor co-receptor (Orco)
T2 sequence (A0A0E4B5G7 1-437): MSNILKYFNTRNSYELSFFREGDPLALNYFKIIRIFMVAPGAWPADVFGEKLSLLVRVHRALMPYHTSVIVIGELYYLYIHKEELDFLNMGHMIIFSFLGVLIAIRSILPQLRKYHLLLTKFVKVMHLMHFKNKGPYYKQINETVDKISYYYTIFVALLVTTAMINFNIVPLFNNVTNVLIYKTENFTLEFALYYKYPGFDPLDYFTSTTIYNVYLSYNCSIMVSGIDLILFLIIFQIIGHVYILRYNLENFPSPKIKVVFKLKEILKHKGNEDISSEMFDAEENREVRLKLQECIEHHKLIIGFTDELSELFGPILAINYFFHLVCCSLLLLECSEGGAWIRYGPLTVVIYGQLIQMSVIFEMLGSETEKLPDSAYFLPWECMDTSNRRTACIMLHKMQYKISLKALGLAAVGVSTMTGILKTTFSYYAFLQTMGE
T2 sequence (A0A0E4B591 1-474 partner): T1 sequence (A0A0E4B591 1-474 partner)

[3] = target: T3, OfurOR5b (Ostrinia furnacalis, UniProt M4NPQ0)
T3 construct: gene OR5b; full-length ORF from male antennal cDNA, untagged, in PT7TS; cRNA co-injected 1:1 with OfurOrco in Xenopus oocytes; with Odorant receptor co-receptor (Orco)
T3 sequence (M4NPQ0 1-424): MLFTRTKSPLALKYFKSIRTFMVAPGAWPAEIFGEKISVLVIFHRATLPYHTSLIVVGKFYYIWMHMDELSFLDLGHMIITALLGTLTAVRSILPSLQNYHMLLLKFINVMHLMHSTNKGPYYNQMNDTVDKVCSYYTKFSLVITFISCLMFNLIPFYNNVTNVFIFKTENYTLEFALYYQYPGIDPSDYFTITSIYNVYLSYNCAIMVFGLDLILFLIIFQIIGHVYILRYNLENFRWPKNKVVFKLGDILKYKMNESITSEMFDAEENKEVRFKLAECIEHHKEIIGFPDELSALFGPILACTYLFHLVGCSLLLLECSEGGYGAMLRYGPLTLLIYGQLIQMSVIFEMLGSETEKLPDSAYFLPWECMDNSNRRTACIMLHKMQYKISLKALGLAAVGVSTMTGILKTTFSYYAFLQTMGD
T3 sequence (A0A0E4B591 1-474 partner): T1 sequence (A0A0E4B591 1-474 partner)

[4] = target: T4, OfurOR6 (Ostrinia furnacalis, UniProt M4NL06)
T4 construct: gene OR6; full-length ORF from male antennal cDNA, untagged, in PT7TS; cRNA co-injected 1:1 with OfurOrco in Xenopus oocytes; naming of Yang et al. 2015; with Odorant receptor co-receptor (Orco)
T4 sequence (M4NL06 1-421): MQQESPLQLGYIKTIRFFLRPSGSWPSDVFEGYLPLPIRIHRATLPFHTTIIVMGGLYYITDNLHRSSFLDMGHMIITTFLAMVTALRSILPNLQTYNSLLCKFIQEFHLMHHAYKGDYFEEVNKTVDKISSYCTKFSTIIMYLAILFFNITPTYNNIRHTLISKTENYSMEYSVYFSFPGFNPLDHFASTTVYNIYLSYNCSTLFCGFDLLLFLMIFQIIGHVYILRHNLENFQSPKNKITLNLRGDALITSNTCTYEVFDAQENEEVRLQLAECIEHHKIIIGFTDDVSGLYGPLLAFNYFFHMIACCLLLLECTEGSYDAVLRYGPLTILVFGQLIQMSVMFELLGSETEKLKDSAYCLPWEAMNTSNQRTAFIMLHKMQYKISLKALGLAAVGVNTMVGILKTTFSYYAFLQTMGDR
T4 sequence (A0A0E4B591 1-474 partner): T1 sequence (A0A0E4B591 1-474 partner)

[5] = target: T5, OfurOR7 (Ostrinia furnacalis, UniProt M4NKX7)
T5 construct: gene OR7; full-length ORF from male antennal cDNA, untagged, in PT7TS; cRNA co-injected 1:1 with OfurOrco in Xenopus oocytes; naming of Yang et al. 2015; with Odorant receptor co-receptor (Orco)
T5 sequence (M4NKX7 1-428): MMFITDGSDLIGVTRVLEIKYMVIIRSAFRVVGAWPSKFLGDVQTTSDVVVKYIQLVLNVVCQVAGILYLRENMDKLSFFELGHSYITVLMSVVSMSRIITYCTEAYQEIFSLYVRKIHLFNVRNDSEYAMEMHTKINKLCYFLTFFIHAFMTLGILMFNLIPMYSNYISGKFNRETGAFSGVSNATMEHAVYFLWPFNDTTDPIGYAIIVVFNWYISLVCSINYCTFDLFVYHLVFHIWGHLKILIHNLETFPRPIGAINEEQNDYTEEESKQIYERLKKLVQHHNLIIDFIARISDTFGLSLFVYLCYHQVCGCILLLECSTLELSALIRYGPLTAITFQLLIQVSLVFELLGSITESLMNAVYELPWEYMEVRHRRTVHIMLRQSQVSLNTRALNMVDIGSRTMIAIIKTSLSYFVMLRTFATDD
T5 sequence (A0A0E4B591 1-474 partner): T1 sequence (A0A0E4B591 1-474 partner)

Row | Compound | current at 100 μM [1] | current at 100 μM [2] [nA] | current at 100 μM [3] | current at 100 μM ([1]; standard order of application (response depends on order)) [nA] | current at 100 μM [4] [nA] | current at 100 μM [5] [nA]
1 | CC/C=C/CCCCCCCCCCOC(C)=O [E11-14:OAc, (E)-11-tetradecenyl acetate] | inhibited the response of Z9-14:OAc, Z11-14:OAc, and E11-14:OAc | 144.6 ± 28.3 | OfurOR5b broadly tuned to Z9-14:OAc, E11-14:OAc, Z11-14:OAc, E12-14:OAc, and Z12-14:OAc | – | – | –
2 | C/C=C/CCCCCCCCCCCOC(C)=O [E12-14:OAc, E-12-tetradecenyl acetate] | – | – | OfurOR5b broadly tuned to Z9-14:OAc, E11-14:OAc, Z11-14:OAc, E12-14:OAc, and Z12-14:OAc | 727.9 ± 120.4 | 140.7 ± 6.0 | –
3 | CCCC/C=C\CCCCCCCCOC(C)=O [Z9-14:OAc, (Z)-9-tetradecenyl acetate] | inhibited the response of Z9-14:OAc, Z11-14:OAc, and E11-14:OAc | 8.5 ± 5.2 | OfurOR5b broadly tuned to Z9-14:OAc, E11-14:OAc, Z11-14:OAc, E12-14:OAc, and Z12-14:OAc | – | – | 212.2 ± 46.3
4 | CC/C=C\CCCCCCCCCCOC(C)=O [Z11-14:OAc, (Z)-11-tetradecenyl acetate] | inhibited the response of Z9-14:OAc, Z11-14:OAc, and E11-14:OAc | 76.8 ± 14.1 | OfurOR5b broadly tuned to Z9-14:OAc, E11-14:OAc, Z11-14:OAc, E12-14:OAc, and Z12-14:OAc | – | – | –
5 | C/C=C\CCCCCCCCCCCOC(C)=O [Z12-14:OAc, (Z)-12-tetradecenyl acetate] | 1876.8 ± 165 nA | – | OfurOR5b broadly tuned to Z9-14:OAc, E11-14:OAc, Z11-14:OAc, E12-14:OAc, and Z12-14:OAc | – | – | –
